In the NIST ThermoML archive (doi:10.1021/acs.jced.8b00460):
± gives the expanded uncertainty stated by the source.

Settings: 511.35 K; Liquid; Ebulliometric method (Recirculating still)

In the case of `O=C(OCCOCCOC(=O)c1ccccc1)c1ccccc1` [diethylene glycol dibenzoate], the “vapor or sublimation pressure” value is reported as 1.015 ± 0.1 kPa.
